Results as given in ChEMBL document CHEMBL1212740, “Long-lasting enfuvirtide carrier pentasaccharide conjugates with potent anti-human immunodeficiency virus type 1 activity” (Antimicrob Agents Chemother, 2010).

What was measured:
[1] = system: Human immunodeficiency virus 1; assay: Antiviral activity against HIV1 BZ167 in human PBMC assessed as p24 antigen level by ELISA; format: functional, organism-based; settings: Human immunodeficiency virus 1, BZ167
[2] = system: Human immunodeficiency virus 1; assay: Antiviral activity against HIV1 strain I-2496 in human PBMC assessed as p24 antigen level by ELISA; format: functional, organism-based; settings: Human immunodeficiency virus 1, I-2496
[3] = system: Human immunodeficiency virus 1; assay: Antiviral activity against HIV1 US2 clade B, R5 in human PBMC assessed as p24 antigen level by ELISA; format: functional, organism-based; settings: Human immunodeficiency virus 1, US2
[4] = system: Human immunodeficiency virus 1; assay: Antiviral activity against HIV1 UG273 clade A, R5 in human PBMC assessed as p24 antigen level by ELISA; format: functional, organism-based; settings: Human immunodeficiency virus 1, UG273
[5] = system: Human immunodeficiency virus 1; assay: Antiviral activity against HIV1 DJ259 in human PBMC assessed as p24 antigen level by ELISA; format: functional, organism-based; settings: Human immunodeficiency virus 1, DJ259
[6] = system: Human immunodeficiency virus 1; assay: Antiviral activity against HIV1 Ba-L in human PBMC assessed as p24 antigen level by ELISA; format: functional, organism-based; settings: Human immunodeficiency virus 1, Ba-L
[7] = system: Human immunodeficiency virus 1; assay: Antiviral activity against HIV1 ETH2220 in human PBMC assessed as p24 antigen level by ELISA; format: functional, organism-based; settings: Human immunodeficiency virus 1, ETH2220
[8] = system: Human immunodeficiency virus 1; assay: Antiviral activity against HIV1 NL4.3 in human PBMC assessed as p24 antigen level by ELISA; format: functional, organism-based; settings: Human immunodeficiency virus 1, NL4.3
[9] = Elimination half life in Wister rat at 4 mg/ kg, iv; format: ADME, organism-based; parameters: dose 4 mg/ kg, route intravenous; settings: Wistar, in vivo
PBMC = assay: Cytotoxicity against human PBMC up to 100 uM by MTS assay; format: cell-based
[10] = system: Human immunodeficiency virus 1; assay: Antiviral activity against HIV1 3B/LA1 infected in human CD4+ T-cell assessed as inhibition of giant cell formation; format: functional, organism-based; settings: Human immunodeficiency virus 1, 3B/LA1, CD4+ T cell
[11] = system: Human immunodeficiency virus 2; assay: Antiviral activity against Human immunodeficiency virus 2 ROD infected in human CD4+ T-cell assessed as inhibition of giant cell formation; format: functional, organism-based; settings: Human immunodeficiency virus 2, ISOLATE ROD
CCRF-CEM = assay: Cytotoxicity against human CEM cells up to 100 uM by MTS assay; format: cell-based
[12] = system: Human immunodeficiency virus 1; assay: Antiviral activity against HIV1 3B/LA1 infected in HUT-78 cells co-cultured with uninfected human SupT1 CD4+ T-cell assessed as inhibition of envelope mediated cell-cell fusion after 16-20 hrs by cell-cell fusion assay; format: functional, organism-based; settings: Human immunodeficiency virus 1, 3B/LA1, HuT78

Compound | EC50 [1] | EC50 [2] | EC50 [3] | EC50 [4] | EC50 [5] | EC50 [6] | EC50 [7] | EC50 [8] | half-life [9] | Activity (PBMC) | EC50 [10] | EC50 [11] | Activity (CCRF-CEM) | EC50 [12]
Cc1nnc(C(C)C)n1[C@H]1C[C@H]2CC[C@@H](C1)N2CC[C@H](NC(=O)C1CCC(F)(F)CC1)c1ccccc1 [MARAVIROC] | > 1000 nM | 0.4 nM | 0.3 nM | 2.6 nM | 3.7 nM | 3.8 nM | 3.6 nM | > 1000 nM | – | – | – | – | – | –
c1cc(CN2CCCNCCNCCCNCC2)ccc1CN1CCCNCCNCCCNCC1 [PLERIXAFOR] | 18.5 nM | > 1000 nM | > 1000 nM | > 1000 nM | > 1000 nM | > 1000 nM | > 1000 nM | 3.6 nM | – | – | – | – | – | –
enfuvirtide | 17.9 nM | 12.4 nM | 6.3 nM | 55.9 nM | 17.9 nM | 17.9 nM | 17.7 nM | 3.6 nM | 2.8 h | Toxic | 3 nM | 360 nM | Toxic | 275 nM
